8 molecules from patent publication US20090253743A1, “COMPOSITIONS OF TOLPERISONE” (Avigen, Inc., priority 2007, published 2009) can be followed below.

Structures are written as SMILES. Counter-ions that a name gives are not always drawn.

Holding throughout (assay type): physicochemical
A short description of data set [1]: HPLC-MS/MS analysis of 4-MMPPO content in tolperisone compositions.
A short description of data set [2]: Stability studies of 4-MMPPO / tolperisone HCl solutions (liquid-liquid extraction, HPLC-MS/MS). How it is done:
The analytical method employed utilized liquid-liquid extraction and HPLC separation on a C18-column with MS/MS detection and internal standardization.
Test solution: 50 mM HCl in methanol containing 40 mg per 200 μL of tolperisone HCl (containing 4-MMPPO as an impurity)
Samples were prepared for analysis generally as follows. 200 μL of IS working solution was added to the dry weighed bulk material or to the 20 μL aliquots. The samples were vortexed, followed by addition of 200 μL of buffer solution. 0.40 mL of DIPE (diisopropyl ether) was then added, followed by extraction via vortexing, and phase separation via centrifugation. About 250 μL of supernatant solution was then transferred into each 5 mL conical centrifuge vial, followed by addition of 200 μL of buffer solution. The major portion of tolperisone was then re-extracted into the watery phase by vortexing, followed by phase separation by centrifugation. 50 μL of centrifugation supernatant was then transferred to each auto sample vial containing injection solution (75 μL of 50 mM HCl in DMSO/MeOH 2/1). Samples were capped (crimped) and vortexed, followed by injection of 7 μL sample into the HPLC-MS/MS system for analysis.
During stability studies for a calibration range from 1-200 ppm, various solutions: a) 4-MMPPO in tolperisone free solution (“reference solution”), b) tolperisone HCl solution (default concentration of 10 mg/mL) without spiking of any 4-MMPPO (“test solution”), and c) tolperisone HCl solution (default concentration of 10 mg/mL) spiked with 4-MMPPO (“spiked test solution”) were assessed under the following storage conditions: (i) for three freeze thaw cycles prior to sample preparation for analysis, (ii) at bench top temperature for 4 hours, and (iii) at auto sampler conditions for 12 hours after sample preparation for analysis. […] Additionally, 4-MMPPO was stable at −70° C. for 2 months prior to sample preparation for analysis.
During stability studies for a concentration range from 0.05-25 ppm, various solutions: a) 4-MMPPO in tolperisone free solution (“reference solution”), b) tolperisone HCl solution (default concentration of 200 mg/mL) without spiking of any 4-MMPPO (“test solution”), and c) tolperisone HCl solution (default concentration of 200 mg/mL) spiked with 4-MMPPO (“spiked test solution”) were assessed under the following storage conditions: (i) at bench top temperature for 2 hours prior to sample preparation for analysis, and (ii) at auto sampler conditions for 14 hours after sample preparation for analysis.

Data set [3] is described as follows: HPLC-MS/MS analysis of 4-MMPPO content in tolperisone compositions. Conditions: drug lot (API) used in the tablet. As to the method: Tolperisone compositions were obtained from various commercial sources and analyzed for 4-MMPPO content by HPLC-MS/MS.
All samples used in the analytical sequence were prepared for analysis as follows. Sample were homogenized if necessary (e.g., tablets) and weighed. For each tolperisone sample, approximately 20 mg of sample was added into a 20 mL flask. 20 mL of 50 mM HCl in MeOH was added to the flask, which was then placed in an ultrasonic bath for about 5 minutes. The contents of the flask were mixed on a vortexer for about 20 seconds. In instances in which the tolperisone sample had initially been in tablet form, the solution was then centrifuged at 4000 rpm for 2 minutes. 200 μL of the sample was then transferred into a small conical centrifuge vial. 20 μL of an internal standard solution containing deuterated 4-MMPPO, 200 μL of buffer at pH 1, and 0.4 mL of diisopropyl ether (DIPE) were added to the vial. The sample was then extracted by vortexing with a DVX-2500 multi-tube vortexer (2100 rpm) for about 2 minutes (cycle: 5 seconds run, 1 second pause time) and centrifugation (phase separation) at 4000 rpm for 2 minutes. 150 μL of 50 mM HCl in MeOH/DMSO (½) was added into empty designated conical autosampler vials. After centrifugation, 100 μL of supernatant was transferred into these conical autosampler vials. The vials were crimped and vortexed with a DVX-2500 multi-tube vortexer (2100 rpm) for about 1 minute. 7 μL of the prepared sample was then injected immediately into an HPLC-MS/MS system or the sample was stored at a temperature below −20° C. until analysis. The chromatography conditions and mass spectrometry parameters used for analysis of 4-MMPPO are shown below in Tables 1 and 2, respectively.
Lots of tolperisone were obtained from manufacturers A and B, as were the final manufactured tablet formulations. Analyses were carried out as described in Example 1 to determine 4-MMPPO levels in both drug lots and final manufactured formulations.

[4] abbreviates: calibration range 1-200 ppm, tolperisone HCl 10 mg/mL, each of: three freeze thaw cycles, bench top 4 hours, auto sampler 12 hours.
Where [5] appears, read: range 0.05-25 ppm, tolperisone HCl 200 mg/mL, auto sampler conditions 14 hours after sample preparation.

As for `Cc1ccc(C(=O)C(C)CN2CCCCC2)cc1` (centres unmarked) [tolperisone HCl, tolperisone hydrochloride], in data set [1] (recrystallized, washed with MTBE saturated with citric acid), the “level of 4-MMPPO” value was “below 1 ppm”. Besides, the “4-MMPPO concentration on storage of solution” value in data set [2] (setting [4]) is on record as “slight increase”; in data set [2] (setting [5]), “constant 4-MMPPO concentration”; in data set [2] (range 0.05-25 ppm, tolperisone HCl 200 mg/mL, bench top temperature 2 hours prior to sample preparation), “slight increase”.

With `Cc1ccc(C(=O)C(C)CN2CCCCC2)cc1` (centres unmarked) [SD0108, tolperisone], in data set [3], the “[4-MMPPO in Drug Lot or API], ppm” value is given as 14 ppm.

For `C=C(C)C(=O)c1ccc(C)cc1` [Sample 4-MMPPO, 2-methyl-1-(4-methylphenyl)-propenone], the “4-MMPPO concentration on storage of solution” value in data set [2] (setting [4]) and in data set [2] (setting [5]) was “constant 4-MMPPO concentration” in each case. Moreover, the “stability prior to sample preparation” value in data set [2] (−70° C. for 2 months) was “stable”.

As for `Cc1ccc(C(=O)C(C)CN2CCCCC2)cc1` (centres unmarked) [SF0191, tolperisone], the “[4-MMPPO in Drug Lot or API], ppm” value in data set [3] is reported as 22 ppm.

As for `Cc1ccc(C(=O)C(C)CN2CCCCC2)cc1` (centres unmarked) [tolperisone, 2-methyl-1-(4-methylphenyl)-3-(-piperidinyl)-1-propanone], the “4-MMPPO in recrystallized tolperisone” value is 0.14 % by weight in data set [1] (Example 2, single standard recrystallization from 2-butanone/isopropanol, dried at 45-85° C.) and less than 0.05% in data set [1] (Example 2, subsequent production batches). For the same molecule, the “4-MMPPO levels in the final recrystallized tolperisone product” value in data set [1] (Example 5, 1% (v/v) concentrated aqueous HCl added to the recrystallization mixture) was “below 6.6 ppm”. Besides, the stability during recrystallization result in data set [1] (in the presence of acid) is reported as “enhanced stability”.

Turning to `Cc1ccc(C(=O)C(C)CN2CCCCC2)cc1` (centres unmarked) [SE0107, tolperisone], in data set [3], the “[4-MMPPO in Drug Lot or API], ppm” value came out at 20 ppm.

Take `Cc1ccc(C(=O)C(C)CN2CCCCC2)cc1` (centres unmarked) [SB0068, tolperisone]: in data set [3], the “[4-MMPPO in Drug Lot or API], ppm” value turned out to be 39 ppm.

As for `Cc1ccc(C(=O)C(C)CN2CCCCC2)cc1` (centres unmarked) [SFO192, tolperisone], the “[4-MMPPO in Drug Lot or API], ppm” value in data set [3] and in data set [3] (listed as SF0192) was 21 ppm throughout.
